SMILES strings stand for the structures. Counter-ions that a name gives are not always drawn.

For assay [1], the target named is T1, Adrenergic β2 (H292 cells) (Homo sapiens, UniProt P07550).
T1 construct: endogenous in cells; host or cells: H292 cells
In words: Assay for Adrenergic β2 Mediated cAMP Production (concentration response, AlphaScreen cAMP detection). The format is cell-based. To be noted: for EC50: cAMP production, 60 minutes at room temperature, 300 μM rolipram, read-out: β2 pEC50 (converted); for β2 Intrinsic activity: fraction relative to the maximum activity determined for formoterol. In a few lines:
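H292 cells plated overnight, pre-treated with rolipram (300 μM final) 10 min, then compound 60 min at room temperature in HBSS/10 mM HEPES pH7.4/5 mM glucose, 1% DMSO. Lysate cAMP read by AlphaScreen against a cAMP standard curve; 4-parameter fit gives pEC50 and intrinsic activity as fraction of formoterol maximum.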
For orientation: Alpha assays give light when donor and acceptor beads are brought close together.

The target of assay [2] is T2, human muscarinic acetylcholine M3 receptor (M3-ACh) (Homo sapiens, UniProt P20309).
T2 construct: expressed in transfected cells; host or cells: CHO-K1 (Chinese Hamster Ovary) cell membranes
In words: Muscarinic 3 Receptor Binding Assay ([3H]NMS competition, SPA). The settings on record: [3H]NMS 0.1 nM, CHO-K1 cell membranes, 16 hours at room temperature; read-out: M3 pIC50 (converted). In a few lines:
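Competition SPA binding of 0.1 nM [3H]NMS (quarter Kd) to membranes from CHO-K1 cells expressing human M3, in 20 mM HEPES pH 7.4, 5 mM MgCl2, 1% DMSO. Incubated 16 h at room temperature; non-specific binding with 1 µM atropine. pIC50 from 50% reduction of specific binding.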

T1 sequence (P07550 whole entry): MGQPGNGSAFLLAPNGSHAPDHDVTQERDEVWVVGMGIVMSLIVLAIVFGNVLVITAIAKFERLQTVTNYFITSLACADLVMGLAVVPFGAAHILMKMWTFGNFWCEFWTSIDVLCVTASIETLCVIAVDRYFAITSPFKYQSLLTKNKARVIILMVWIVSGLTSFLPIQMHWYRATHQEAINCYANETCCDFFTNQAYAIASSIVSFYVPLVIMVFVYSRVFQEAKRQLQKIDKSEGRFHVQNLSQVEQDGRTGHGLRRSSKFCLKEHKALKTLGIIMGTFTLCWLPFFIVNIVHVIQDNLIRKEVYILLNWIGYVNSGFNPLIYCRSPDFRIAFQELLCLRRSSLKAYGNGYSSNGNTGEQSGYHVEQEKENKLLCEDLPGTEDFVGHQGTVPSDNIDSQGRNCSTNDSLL
T2 sequence (P20309 whole entry): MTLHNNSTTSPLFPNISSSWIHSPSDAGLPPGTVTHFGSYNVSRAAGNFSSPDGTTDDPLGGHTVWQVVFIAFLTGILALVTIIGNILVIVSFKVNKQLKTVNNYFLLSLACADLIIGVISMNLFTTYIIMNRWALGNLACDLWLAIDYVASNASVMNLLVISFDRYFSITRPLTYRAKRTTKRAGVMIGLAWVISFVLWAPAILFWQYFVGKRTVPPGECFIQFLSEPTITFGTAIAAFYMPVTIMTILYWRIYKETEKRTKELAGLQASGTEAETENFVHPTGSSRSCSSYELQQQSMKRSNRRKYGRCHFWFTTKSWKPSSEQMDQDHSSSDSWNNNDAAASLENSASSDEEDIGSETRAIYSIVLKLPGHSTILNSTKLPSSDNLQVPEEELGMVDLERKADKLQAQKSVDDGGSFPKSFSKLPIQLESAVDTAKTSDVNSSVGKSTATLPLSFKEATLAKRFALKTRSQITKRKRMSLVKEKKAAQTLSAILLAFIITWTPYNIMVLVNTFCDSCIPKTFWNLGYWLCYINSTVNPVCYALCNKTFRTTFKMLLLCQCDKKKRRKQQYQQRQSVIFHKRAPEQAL

With `Cc1nc(C(=O)N2CCOC3(CCN(Cc4ccc(CCNC[C@H](O)c5ccc(O)c6[nH]c(=O)sc56)cc4)CC3)C2)cs1` [Example 16, (R)-4-Hydroxy-7-(1-hydroxy-2-(4-((4-(2-methylthiazole-4-carbonyl)-1-oxa-4,9-diazaspiro[5.5]undecan-9-yl)methyl)phenethylamino)ethyl)benzo[d]thiazol-2(3H)-one ditrifluoroacetate], in assay [1], the EC50 was 15.8 nM and the “β2 Intrinsic activity” value is listed as 0.9. In addition, in assay [2], the IC50 is 7.94 nM.
As to `CCc1cc(C(=O)N2CCOC3(CCN(Cc4cccc(CCNC[C@H](O)c5ccc(O)c6[nH]c(=O)sc56)c4)CC3)C2)cs1` [Example 86, (R)-7-(2-(3-((4-(5-Ethylthiophene-3-carbonyl)-1-oxa-4,9-diazaspiro[5.5]undecan-9-yl)methyl)phenethylamino)-1-hydroxyethyl)-4-hydroxybenzo[d]thiazol-2(3H)-one ditrifluoroacetate], in assay [1], the EC50 was 2.51 nM and the “β2 Intrinsic activity” value is 0.8. The IC50 in assay [2] was 0.158 nM.
As to `Cc1ccc(C(=O)N2CC(F)(F)OC3(CCN(Cc4cccc(CCNC[C@H](O)c5ccc(O)c6[nH]c(=O)ccc56)c4)CC3)C2)s1` [Example 37, (R)-5-(2-(3-((2,2-Difluoro-4-(5-methylthiophene-2-carbonyl)-1-oxa-4,9-diazaspiro[5.5]undecan-9-yl)methyl)phenethylamino)-1-hydroxyethyl)-8-hydroxyquinolin-2(1H)-one ditrifluoroacetate], in assay [1], the EC50 is 3.16 nM and the “β2 Intrinsic activity” value is on record as 0.9. Further, the IC50 in assay [2] was 3.16 nM.
For the compound `CC(C)c1nc(C(=O)N2CCOC3(CCN(Cc4cccc(C(F)CNC[C@H](O)c5ccc(O)c6[nH]c(=O)sc56)c4)CC3)C2)cs1` (stereo partly drawn) [Example 39, 7-((1R)-2-(2-Fluoro-2-(3-((4-(2-isopropylthiazole-4-carbonyl)-1-oxa-4,9-diazaspiro[5.5]undecan-9-yl)methyl)phenyl)ethylamino)-1-hydroxyethyl)-4-hydroxybenzo[d]thiazol-2(3H)-one ditrifluoroacetate], in assay [1], the EC50 is 100 nM and the “β2 Intrinsic activity” value is 0.9. For the same compound, the IC50 in assay [2] was 0.316 nM.
On to `CC(C)c1nc(C(=O)N2CCOC3(CCN(CCCCCCCC(C)(C)CNC[C@H](O)c4ccc(O)c5[nH]c(=O)sc45)CC3)C2)cs1` [Example 103, (R)-4-Hydroxy-7-(1-hydroxy-2-(9-(4-(2-isopropylthiazole-4-carbonyl)-1-oxa-4,9-diazaspiro[5.5]undecan-9-yl)-2,2-dimethylnonylamino)ethyl)benzo[d]thiazol-2(3H)-one formate], for which, in assay [1], the EC50 is 251 nM and the “β2 Intrinsic activity” value stood at 1. Besides, the IC50 in assay [2] is 1 nM.
With `CC(CCCCCCCN1CCC2(CC1)CN(C(=O)c1csc(C(C)C)n1)CCO2)CNC[C@H](O)c1ccc(O)c2[nH]c(=O)sc12` (stereo partly drawn) [Example 283, 4-Hydroxy-7-((1R)-1-hydroxy-2-(9-(4-(2-isopropylthiazole-4-carbonyl)-1-oxa-4,9-diazaspiro[5.5]undecan-9-yl)-2-methylnonylamino)ethyl)benzo[d]thiazol-2(3H)-one formate], in assay [1], the EC50 was 79.4 nM and the “β2 Intrinsic activity” value came to 1.1. For the same compound, the IC50 in assay [2] was 1.26 nM.
For the compound `CC(C)c1cc(C(=O)N2CCOC3(CCN(Cc4cc(CCNC[C@H](O)c5ccc(O)c6[nH]c(=O)sc56)cs4)CC3)C2)cs1` [Example 264, (R)-4-Hydroxy-7-(1-hydroxy-2-(2-(5-((4-(5-isopropylthiophene-3-carbonyl)-1-oxa-4,9-diazaspiro[5.5]undecan-9-yl)methyl)thiophen-3-yl)ethylamino)ethyl)benzo[d]thiazol-2(3H)-one ditrifluoroacetate], in assay [1], the EC50 is 20 nM and the “β2 Intrinsic activity” value was found to be 1. The IC50 in assay [2] is 7.94 nM.
As for `CCCc1nc(C(=O)N2CCOC3(CCN(Cc4cc(F)cc(CCNC[C@H](O)c5ccc(O)c6[nH]c(=O)sc56)c4)CC3)C2)cs1` [Example 56, (R)-7-(2-(3-Fluoro-5-((4-(2-propylthiazole-4-carbonyl)-1-oxa-4,9-diazaspiro[5.5]undecan-9-yl)methyl)phenethylamino)-1-hydroxyethyl)-4-hydroxybenzo[d]thiazol-2(3H)-one ditrifluoroacetate], in assay [1], the EC50 is 7.94 nM and the “β2 Intrinsic activity” value was 1. The IC50 in assay [2] is 2.51 nM.
For the compound `CC(C)c1ccc(C(=O)N2CCOC3(CCN(Cc4cccc(CCNC[C@H](O)c5ccc(O)c6[nH]c(=O)sc56)c4F)CC3)C2)s1` [Example 73, (R)-7-(2-(2-Fluoro-3-((4-(5-isopropylthiophene-2-carbonyl)-1-oxa-4,9-diazaspiro[5.5]undecan-9-yl)methyl)phenethylamino)-1-hydroxyethyl)-4-hydroxybenzo[d]thiazol-2(3H)-one ditrifluoroacetate], in assay [1], the EC50 was 7.94 nM and the “β2 Intrinsic activity” value came to 0.9. Besides, the IC50 in assay [2] was 7.94 nM.
For `O=C(c1csc(C(F)(F)F)n1)N1CCOC2(CCN(Cc3cccc(CCNC[C@H](O)c4ccc(O)c5[nH]c(=O)ccc45)c3)CC2)C1` [Example 25, (R)-8-Hydroxy-5-(1-hydroxy-2-(3-((4-(2-(trifluoromethyl)thiazole-4-carbonyl)-1-oxa-4,9-diazaspiro[5.5]undecan-9-yl)methyl)phenethylamino)ethyl)quinolin-2(1H)-one ditrifluoroacetate], in assay [1], the EC50 was 15.8 nM and the “β2 Intrinsic activity” value stood at 0.8. In addition, the IC50 in assay [2] was 1 nM.
As for `Cc1nc(C(=O)N2CCOC3(CCN(CCCCCCCCCNC[C@H](O)c4ccc(O)c5[nH]c(=O)sc45)CC3)C2)cs1` [Example 2, (R)-4-Hydroxy-7-(1-hydroxy-2-(9-(4-(2-methylthiazole-4-carbonyl)-1-oxa-4,9-diazaspiro[5.5]undecan-9-yl)nonylamino)ethyl)benzo[d]thiazol-2(3H)-one ditrifluoroacetate], in assay [1], the EC50 was 12.6 nM and the “β2 Intrinsic activity” value came to 0.8. The IC50 in assay [2] was 0.316 nM.
As to `O=C(c1cc2ccccc2s1)N1CCOC2(CCN(Cc3cccc(CCNC[C@H](O)c4ccc(O)c5[nH]c(=O)sc45)c3F)CC2)C1` [Example 79, (R)-7-(2-(3-((4-(Benzo[b]thiophene-2-carbonyl)-1-oxa-4,9-diazaspiro[5.5]undecan-9-yl)methyl)-2-fluorophenethylamino)-1-hydroxyethyl)-4-hydroxybenzo[d]thiazol-2(3H)-one ditrifluoroacetate], in assay [1], the EC50 was 6.31 nM and the “β2 Intrinsic activity” value was 0.9. In assay [2], the IC50 is 126 nM.
In the same order, the values of `CC(C)c1nc(C(=O)N2CCOC3(CCN(Cc4cc(CCNC[C@H](O)c5ccc(O)c6[nH]c(=O)sc56)ccc4Cl)CC3)C2)cs1` [Example 61, (R)-7-(2-(4-Chloro-3-((4-(2-isopropylthiazole-4-carbonyl)-1-oxa-4,9-diazaspiro[5.5]undecan-9-yl)methyl)phenethylamino)-1-hydroxyethyl)-4-hydroxybenzo[d]thiazol-2(3H)-one ditrifluoroacetate] are 63.1 nM, 0.9 and 5.01 nM.
The like results for `CC(C)c1cc(C(=O)N2CCOC3(CCN(Cc4cccc(CCNC[C@H](O)c5ccc(O)c6[nH]c(=O)ccc56)c4)CC3)C2)cs1` [Example 83, (R)-8-Hydroxy-5-(1-hydroxy-2-(3-((4-(5-isopropylthiophene-3-carbonyl)-1-oxa-4,9-diazaspiro[5.5]undecan-9-yl)methyl)phenethylamino)ethyl)quinolin-2(1H)-one ditrifluoroacetate] were, in that order, 12.6 nM, 0.8 and 0.501 nM.
In the same order, the values of `CCCCc1nc(C(=O)N2CCOC3(CCN(Cc4cccc(CCNC[C@H](O)c5ccc(O)c6[nH]c(=O)sc56)c4F)CC3)C2)cs1` [Example 78, (R)-7-(2-(3-((4-(2-Butylthiazole-4-carbonyl)-1-oxa-4,9-diazaspiro[5.5]undecan-9-yl)methyl)-2-fluorophenethylamino)-1-hydroxyethyl)-4-hydroxybenzo[d]thiazol-2(3H)-one ditrifluoroacetate] are 15.8 nM, 0.9 and 10 nM.
With `CC(C)c1nc(C(=O)N2CCOC3(CCN(Cc4cccc(CCNC[C@H](O)c5ccc(O)c6[nH]c(=O)ccc56)c4Cl)CC3)C2)cs1` [Example 81, (R)-5-(2-(2-Chloro-3-((4-(2-isopropylthiazole-4-carbonyl)-1-oxa-4,9-diazaspiro[5.5]undecan-9-yl)methyl)phenethylamino)-1-hydroxyethyl)-8-hydroxyquinolin-2(1H)-one ditrifluoroacetate], in assay [1], the EC50 was 7.94 nM and the “β2 Intrinsic activity” value came to 0.7. Also, in assay [2], the IC50 was 6.31 nM.
As to `CCc1cc(C(=O)N2CCOC3(CCN(Cc4cccc(CCNC[C@H](O)c5ccc(O)c6[nH]c(=O)sc56)c4F)CC3)C2)cs1` [Example 91, (R)-7-(2-(3-((4-(5-Ethylthiophene-3-carbonyl)-1-oxa-4,9-diazaspiro[5.5]undecan-9-yl)methyl)-2-fluorophenethylamino)-1-hydroxyethyl)-4-hydroxybenzo[d]thiazol-2(3H)-one ditrifluoroacetate], in assay [1], the EC50 was 1.26 nM and the “β2 Intrinsic activity” value was 0.7. Moreover, in assay [2], the IC50 was 2 nM.

(Values after patent publication US8148373B2, “Compounds” (AstraZeneca AB, priority 2008, dated 2012).)
